Reference: ChEMBL document CHEMBL5465560, “Selectivity Literature for EUbOPEN Chemogenomic Library” (2024)

Assays:
[1] = target: Serine/threonine-protein kinase PAK 3 (Homo sapiens) (UniProt O75914); experiment: Selectivity interaction (KinomeScan (DiscoverX)) EUB0000655a PAK3; settings: at 10 µM
[2] = target: T1, Phosphatidylinositol 5-phosphate 4-kinase type-2 beta (Homo sapiens) (UniProt P78356); experiment: Selectivity interaction (KinomeScan (DiscoverX)) EUB0000618a PIP4K2B; settings: at 10 µM
T1 sequence (whole entry): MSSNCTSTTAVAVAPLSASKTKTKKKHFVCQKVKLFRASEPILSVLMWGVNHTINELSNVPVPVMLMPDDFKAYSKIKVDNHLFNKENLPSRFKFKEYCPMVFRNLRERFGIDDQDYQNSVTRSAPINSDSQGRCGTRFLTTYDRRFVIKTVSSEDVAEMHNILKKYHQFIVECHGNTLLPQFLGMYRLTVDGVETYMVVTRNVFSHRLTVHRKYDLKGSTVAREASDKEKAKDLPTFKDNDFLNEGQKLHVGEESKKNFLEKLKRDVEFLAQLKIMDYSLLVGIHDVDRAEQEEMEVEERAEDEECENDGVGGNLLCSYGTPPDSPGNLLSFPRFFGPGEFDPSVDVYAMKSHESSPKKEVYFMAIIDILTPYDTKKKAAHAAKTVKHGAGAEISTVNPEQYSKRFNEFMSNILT

[3] = target: T2, Activin receptor type-1 (Homo sapiens) (UniProt Q04771); experiment: Selectivity interaction (KinomeScan (DiscoverX)) EUB0000607a ACVR1; settings: at 10 µM
T2 sequence (whole entry): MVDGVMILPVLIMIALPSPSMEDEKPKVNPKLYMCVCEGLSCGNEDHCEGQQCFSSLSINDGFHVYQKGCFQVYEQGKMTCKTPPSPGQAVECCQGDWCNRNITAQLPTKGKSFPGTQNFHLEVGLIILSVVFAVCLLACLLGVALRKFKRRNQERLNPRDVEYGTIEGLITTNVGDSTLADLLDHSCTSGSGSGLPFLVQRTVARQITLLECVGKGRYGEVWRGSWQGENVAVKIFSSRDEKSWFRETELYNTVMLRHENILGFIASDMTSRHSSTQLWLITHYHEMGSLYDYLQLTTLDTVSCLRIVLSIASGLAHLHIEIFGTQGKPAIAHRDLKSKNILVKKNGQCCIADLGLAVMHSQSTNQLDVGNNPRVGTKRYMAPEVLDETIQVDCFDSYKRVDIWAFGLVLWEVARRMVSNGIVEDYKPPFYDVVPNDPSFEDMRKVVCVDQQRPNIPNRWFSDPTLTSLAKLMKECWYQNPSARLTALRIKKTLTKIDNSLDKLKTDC

[4] = target: T3, Ephrin type-A receptor 1 (Homo sapiens) (UniProt P21709); experiment: Selectivity interaction (KinomeScan (DiscoverX)) EUB0000045b EPHA1
T3 sequence (whole entry): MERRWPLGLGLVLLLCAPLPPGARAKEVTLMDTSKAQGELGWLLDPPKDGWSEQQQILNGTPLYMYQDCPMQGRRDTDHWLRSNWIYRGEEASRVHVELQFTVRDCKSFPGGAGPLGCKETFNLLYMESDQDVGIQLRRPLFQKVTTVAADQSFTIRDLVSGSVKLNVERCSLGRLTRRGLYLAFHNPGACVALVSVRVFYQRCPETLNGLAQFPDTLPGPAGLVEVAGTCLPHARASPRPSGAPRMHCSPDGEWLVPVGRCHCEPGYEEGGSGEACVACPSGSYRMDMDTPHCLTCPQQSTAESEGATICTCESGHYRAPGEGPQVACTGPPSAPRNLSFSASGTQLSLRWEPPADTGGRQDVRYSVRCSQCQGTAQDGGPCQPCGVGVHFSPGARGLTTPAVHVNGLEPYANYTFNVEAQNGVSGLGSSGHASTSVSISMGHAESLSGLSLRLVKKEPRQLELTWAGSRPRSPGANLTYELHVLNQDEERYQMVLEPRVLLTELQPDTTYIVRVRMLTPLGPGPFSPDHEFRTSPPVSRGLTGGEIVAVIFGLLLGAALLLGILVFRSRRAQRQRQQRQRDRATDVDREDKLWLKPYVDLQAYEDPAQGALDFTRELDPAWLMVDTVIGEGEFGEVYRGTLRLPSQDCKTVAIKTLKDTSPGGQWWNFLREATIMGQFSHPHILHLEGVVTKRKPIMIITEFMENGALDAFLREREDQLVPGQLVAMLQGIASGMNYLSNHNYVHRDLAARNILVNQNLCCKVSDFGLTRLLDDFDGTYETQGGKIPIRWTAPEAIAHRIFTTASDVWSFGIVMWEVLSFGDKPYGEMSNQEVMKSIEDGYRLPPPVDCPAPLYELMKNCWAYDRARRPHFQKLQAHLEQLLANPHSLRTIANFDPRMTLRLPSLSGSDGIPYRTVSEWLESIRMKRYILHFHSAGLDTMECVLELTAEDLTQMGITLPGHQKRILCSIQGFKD

[5] = target: Casein kinase I isoform alpha (Homo sapiens, UniProt P48729); experiment: Selectivity interaction (ActivX KiNativ screen (kinase selectivity in THP-1 cell lysates)) EUB0000639a CSNK1A1; assay type: subcellular; settings: lysate, at 0.04 µM
Sequence of Casein kinase I isoform alpha (P48729 2-337 limits assumed): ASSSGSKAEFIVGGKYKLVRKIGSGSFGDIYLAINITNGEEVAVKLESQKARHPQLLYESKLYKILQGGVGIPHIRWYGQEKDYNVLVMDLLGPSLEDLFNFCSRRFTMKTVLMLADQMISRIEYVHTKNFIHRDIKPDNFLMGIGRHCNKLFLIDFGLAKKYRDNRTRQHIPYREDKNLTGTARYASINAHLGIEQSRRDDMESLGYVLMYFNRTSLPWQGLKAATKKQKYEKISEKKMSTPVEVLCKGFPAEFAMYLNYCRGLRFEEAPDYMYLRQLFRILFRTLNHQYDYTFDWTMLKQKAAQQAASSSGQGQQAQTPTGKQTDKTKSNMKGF

[6] = target: Calcium/calmodulin-dependent protein kinase type II subunit alpha (Homo sapiens, UniProt Q9UQM7); experiment: Selectivity interaction (ProQinase) EUB0000171b CAMK2A
Sequence of Calcium/calmodulin-dependent protein kinase type II subunit alpha (Q9UQM7 whole entry): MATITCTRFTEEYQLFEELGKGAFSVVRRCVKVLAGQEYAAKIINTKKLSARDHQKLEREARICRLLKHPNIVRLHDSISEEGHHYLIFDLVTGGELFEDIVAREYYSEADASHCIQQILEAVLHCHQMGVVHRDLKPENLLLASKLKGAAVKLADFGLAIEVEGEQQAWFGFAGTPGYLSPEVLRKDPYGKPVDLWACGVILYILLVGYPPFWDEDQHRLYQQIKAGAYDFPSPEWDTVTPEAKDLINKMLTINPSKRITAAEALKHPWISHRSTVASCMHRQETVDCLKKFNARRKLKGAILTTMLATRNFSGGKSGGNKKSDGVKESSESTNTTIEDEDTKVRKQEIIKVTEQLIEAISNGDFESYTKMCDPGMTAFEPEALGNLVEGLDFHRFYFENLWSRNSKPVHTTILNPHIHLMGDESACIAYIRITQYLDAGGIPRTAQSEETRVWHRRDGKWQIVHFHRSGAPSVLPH

[7] = target: T4, Phosphatidylinositol 5-phosphate 4-kinase type-2 gamma (Homo sapiens) (UniProt Q8TBX8); experiment: Selectivity interaction (KinomeScan (DiscoverX)) EUB0000695a PIP4K2C; settings: at 100 nM
T4 sequence (whole entry): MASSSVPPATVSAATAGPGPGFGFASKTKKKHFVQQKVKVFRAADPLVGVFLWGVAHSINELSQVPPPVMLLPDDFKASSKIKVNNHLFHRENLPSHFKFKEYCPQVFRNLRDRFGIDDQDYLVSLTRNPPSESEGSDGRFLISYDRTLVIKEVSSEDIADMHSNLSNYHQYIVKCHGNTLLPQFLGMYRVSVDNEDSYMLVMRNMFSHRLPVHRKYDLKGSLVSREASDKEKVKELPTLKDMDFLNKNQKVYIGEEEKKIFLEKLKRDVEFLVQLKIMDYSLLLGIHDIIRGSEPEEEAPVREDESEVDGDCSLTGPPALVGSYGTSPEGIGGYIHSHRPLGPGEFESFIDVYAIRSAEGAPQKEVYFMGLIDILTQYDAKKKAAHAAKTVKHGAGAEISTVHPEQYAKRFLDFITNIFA

Sequence of Serine/threonine-protein kinase PAK 3 (Homo sapiens) (O75914 whole entry, looked up): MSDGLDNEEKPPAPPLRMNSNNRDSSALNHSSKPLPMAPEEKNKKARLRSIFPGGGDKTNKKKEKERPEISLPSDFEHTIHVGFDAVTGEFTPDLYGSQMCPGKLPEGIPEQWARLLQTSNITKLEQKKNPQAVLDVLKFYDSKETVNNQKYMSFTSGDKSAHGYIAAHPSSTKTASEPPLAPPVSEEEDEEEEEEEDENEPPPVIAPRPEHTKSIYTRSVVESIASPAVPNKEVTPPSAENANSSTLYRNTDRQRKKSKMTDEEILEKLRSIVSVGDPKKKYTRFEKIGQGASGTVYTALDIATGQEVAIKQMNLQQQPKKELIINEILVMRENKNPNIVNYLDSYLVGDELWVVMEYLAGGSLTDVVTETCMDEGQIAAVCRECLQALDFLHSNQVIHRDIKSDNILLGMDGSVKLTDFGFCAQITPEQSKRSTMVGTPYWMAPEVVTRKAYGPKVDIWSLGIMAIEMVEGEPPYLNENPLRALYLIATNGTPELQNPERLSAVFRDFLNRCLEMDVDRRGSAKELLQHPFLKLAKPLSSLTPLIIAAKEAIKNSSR

Work on `CN(C)CCOc1ccc(-c2nc(-c3ccncc3)c(-c3ccc4c(c3)CC/C4=N\O)[nH]2)cc1` yielded a % of control [1] of 72%.
For `O[C@H]1CC[C@H](Nc2ncc3nc(Nc4c(F)cc(F)cc4F)n([C@H]4CCOC4)c3n2)CC1`, the % of control [2] was 98%.
`CNC(=O)Nc1ccc(-c2nc(N3CC4CCC(C3)O4)c3cnn(C4CCC5(CC4)OCCO5)c3n2)cc1` gave a % of control [3] of 90%.
`C=CC(=O)Nc1cc(-n2c(=O)ccc3cnc4ccc(-c5ccc(NS(C)(=O)=O)cc5)cc4c32)ccc1C` was tested, and the % of control ([4]; at 1 µM) was 92% and the % of control ([4]; at 10 µM) was 100%.
For `CC[C@@H]1[C@H](F)C(=O)N[C@@H]1COc1nccc2cc(C(N)=O)c(OC)cc12` [ZIMLOVISERTIB], the % of inhibition [5] was -2.5%.
With `C=CC(=O)Nc1cccc(C(=O)Nc2ccc(Nc3cc(-c4[nH]c(SC)nc4C)ccn3)cc2)c1` the % of control ([6]; at 1 µM) was 90% and the % of control ([6]; at 5 µM) was 90%.
`Cc1cc(F)c(C(=O)Nc2cccc(-c3nncn3C(C)C)n2)cc1-n1cnc(C2CC2)c1` was tested, and the % of control [7] was 100%.
